# In ChEMBL document CHEMBL4699449, “Adenosine A Receptor Antagonists for Cancer Immunotherapy” (J Med Chem, 2020):
# What was measured:
# [1] = Half life in mouse at 2 mg/kg, iv or 10 mg/kg, po measured up to 24 hrs by LC-MS/MS analysis; format: ADME, organism-based; conditions: in vivo
# [2] = Cmax in mouse at 1 mg/kg, iv measured up to 24 hrs by LC-MS/MS analysis; format: ADME, organism-based; parameters: route intravenous, dose 1 mg/kg, time <=24; conditions: in vivo
# Adenosine receptor A2a [3] = target: T1, Adenosine receptor A2a (Homo sapiens, UniProt P29274); assay: Antagonist activity at human adenosine 2A receptor expressed in T-REx-CHO cells preincubated for 1 hr followed by NECA stimulation and measured after 30 mins by Eu-cAMP tracer based TR-FRET assay; format: functional, cell-based; conditions: filed as antagonist, time 1.5 hrs
# T1 sequence (P29274 whole entry): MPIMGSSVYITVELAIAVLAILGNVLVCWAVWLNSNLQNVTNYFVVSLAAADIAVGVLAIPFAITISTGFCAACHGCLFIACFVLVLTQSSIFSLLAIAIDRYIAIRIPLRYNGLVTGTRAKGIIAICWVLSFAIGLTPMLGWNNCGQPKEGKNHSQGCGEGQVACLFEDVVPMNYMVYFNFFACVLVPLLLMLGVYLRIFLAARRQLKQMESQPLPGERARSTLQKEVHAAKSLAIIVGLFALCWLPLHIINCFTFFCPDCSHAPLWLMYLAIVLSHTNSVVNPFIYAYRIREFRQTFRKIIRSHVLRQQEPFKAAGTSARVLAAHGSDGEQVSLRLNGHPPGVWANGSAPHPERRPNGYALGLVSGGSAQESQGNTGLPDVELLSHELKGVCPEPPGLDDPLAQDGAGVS
# Adenosine receptor A1 = target: T2, Adenosine receptor A1 (Homo sapiens, UniProt P30542); assay: Inhibition of FRET-labelled CA200645 binding to human adenosine A1 receptor expressed in CHO cells incubated for 2 hr by TR-FRET assay; format: cell-based
# T2 sequence (P30542 whole entry): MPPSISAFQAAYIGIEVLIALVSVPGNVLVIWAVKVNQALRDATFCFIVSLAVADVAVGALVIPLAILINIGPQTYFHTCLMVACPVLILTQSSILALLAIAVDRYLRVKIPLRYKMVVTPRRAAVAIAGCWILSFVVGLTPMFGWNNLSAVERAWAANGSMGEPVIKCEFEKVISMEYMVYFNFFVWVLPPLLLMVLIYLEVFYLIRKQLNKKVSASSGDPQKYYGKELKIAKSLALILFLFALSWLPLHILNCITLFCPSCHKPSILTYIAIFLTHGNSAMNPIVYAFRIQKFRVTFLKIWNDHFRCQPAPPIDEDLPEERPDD
# Adenosine receptor A2a [4] = target: T1, Adenosine receptor A2a; assay: Inhibition of FRET-labelled CA200645 binding to human adenosine 2A receptor expressed in CHO cells incubated for 2 hr by TR-FRET assay; format: cell-based
# Adenosine receptor A3 = target: T3, Adenosine receptor A3 (Homo sapiens, UniProt P0DMS8); assay: Inhibition of FRET-labelled CA200645 binding to human adenosine A3 receptor expressed in CHO cells incubated for 2 hr by TR-FRET assay; format: cell-based
# T3 sequence (P0DMS8 whole entry): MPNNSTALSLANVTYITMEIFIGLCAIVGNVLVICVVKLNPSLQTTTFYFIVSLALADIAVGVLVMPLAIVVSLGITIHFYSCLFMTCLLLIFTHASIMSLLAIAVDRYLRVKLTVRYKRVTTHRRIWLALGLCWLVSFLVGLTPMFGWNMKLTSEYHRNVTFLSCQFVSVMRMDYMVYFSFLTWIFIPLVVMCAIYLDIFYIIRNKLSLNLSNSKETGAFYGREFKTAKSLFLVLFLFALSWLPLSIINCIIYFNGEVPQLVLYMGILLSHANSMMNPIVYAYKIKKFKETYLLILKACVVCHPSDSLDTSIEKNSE
# Adenosine receptor A2a [5] = target: T1, Adenosine receptor A2a; assay: Antagonist activity at adenosine 2A receptor in human blood assessed as reversal of NECA/LPS-stimulated TNF-alpha release incubated for 5 hrs; format: tissue-based
# Adenosine receptor A2a [6] = target: T1, Adenosine receptor A2a; assay: Antagonist activity at human adenosine 2A receptor expressed in HEK293 cells assessed as reduction in NECA-induced cAMP level incubated for 15 mins by HTRF assay; format: functional, cell-based
# Homo sapiens [7] = organism: Homo sapiens; assay: Selectivity ratio of Ki for human adenosine A3 receptor to Ki for human Adenosine 2A receptor
# Adenosine receptor A2a [8] = target: T1, Adenosine receptor A2a; assay: Antagonist activity at adenosine 2A receptor in human whole blood assessed as reduction in phosphorylated CREB level preincubated for 20 mins followed by adenosine receptor agonist NECA addition and measured after 30 mins by flow cytometric analysis; format: functional, tissue-based
# Homo sapiens [9] = organism: Homo sapiens; assay: Selectivity ratio of Ki for human adenosine A1 receptor to Ki for human Adenosine 2A receptor
# Adenosine receptor A2b = target: T4, Adenosine receptor A2b (Homo sapiens, UniProt P29275); assay: Inhibition of FRET-labelled CA200645 binding to human adenosine 2B receptor expressed in CHO cells incubated for 2 hr by TR-FRET assay; format: cell-based
# T4 sequence (P29275 whole entry): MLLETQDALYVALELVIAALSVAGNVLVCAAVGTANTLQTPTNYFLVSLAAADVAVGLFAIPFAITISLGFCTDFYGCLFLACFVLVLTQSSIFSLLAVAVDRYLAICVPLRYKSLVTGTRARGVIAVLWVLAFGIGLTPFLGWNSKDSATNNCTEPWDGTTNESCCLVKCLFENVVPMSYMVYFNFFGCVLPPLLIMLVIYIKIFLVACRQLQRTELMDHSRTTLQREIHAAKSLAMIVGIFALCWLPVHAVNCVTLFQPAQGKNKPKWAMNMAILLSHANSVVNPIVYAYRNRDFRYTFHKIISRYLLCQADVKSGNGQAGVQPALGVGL
# [10] = target: Adenosine receptor A2a (Rattus norvegicus) (UniProt P30543); assay: Antagonist activity at adenosine 2A receptor in rat PC12 cells assessed as reduction in NECA-induced cAMP level incubated for 30 mins by TR-FRET assay; format: functional, cell-based; conditions: PC-12, filed as antagonist
# Adenosine receptor A2a (Rattus norvegicus), sequence (P30543 whole entry): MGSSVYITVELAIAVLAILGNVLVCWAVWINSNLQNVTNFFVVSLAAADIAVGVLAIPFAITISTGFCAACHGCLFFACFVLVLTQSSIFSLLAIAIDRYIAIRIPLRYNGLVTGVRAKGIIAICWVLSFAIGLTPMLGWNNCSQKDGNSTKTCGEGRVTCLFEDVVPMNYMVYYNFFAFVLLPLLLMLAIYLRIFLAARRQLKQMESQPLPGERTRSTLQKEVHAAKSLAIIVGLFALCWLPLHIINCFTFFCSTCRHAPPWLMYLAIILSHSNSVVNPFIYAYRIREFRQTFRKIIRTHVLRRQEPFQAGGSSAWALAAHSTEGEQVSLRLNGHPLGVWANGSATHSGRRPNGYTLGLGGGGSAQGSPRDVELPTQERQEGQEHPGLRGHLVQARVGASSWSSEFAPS
# Adenosine receptor A2a [11] = target: T1, Adenosine receptor A2a; assay: Antagonist activity at human adenosine 2A receptor expressed in HEK293 cells assessed as reduction in cAMP production preincubated for 10 mins followed by 3 nM A2A agonist NECA addition and measured after 30 mins by EU-cAMP tracer based TR-FRET assay; format: functional, cell-based
# Adenosine receptor A2a [12] = target: T1, Adenosine receptor A2a; assay: Antagonist activity at adenosine 2A receptor in human peripheral blood lymphocytes assessed as reduction in NECA-stimulated CREB phosphorylation by flow cytometric analysis; format: functional, cell-based, PBL
# Adenosine receptor A2a [13] = target: T1, Adenosine receptor A2a; assay: Antagonist activity at human adenosine 2A receptor expressed in HEK293 cells assessed as reduction in cAMP production preincubated for 10 mins followed by adenosine addition and measured after 30 mins by EU-cAMP tracer based TR-FRET assay; format: functional, cell-based
# Adenosine receptor A2a [14] = target: T1, Adenosine receptor A2a; assay: Antagonist activity at human adenosine 2A receptor expressed in HEK293 cells assessed as reduction in cAMP production preincubated for 10 mins followed by 5 nM A2A agonist NECA addition and measured after 30 mins by EU-cAMP tracer based TR-FRET assay; format: functional, cell-based
# [15] = Tmax in human at 75 to 200 mg administered as multiple ascending dose; format: ADME; conditions: in vivo, dose 75-200 mg
# [16] = Cmax in human at 75 to 200 mg; format: ADME; parameters: dose 75-200
# [17] = Tmax in human at 75 to 200 mg administered as single ascending dose; format: ADME; conditions: in vivo, dose 75-200 mg
# [18] = Half life in human at 75 to 200 mg; format: ADME; conditions: dose 75-200 mg
smiles,measurement,setting,value
COc1ncc(N2CCOCC2)c2nc(NC(=O)c3cnn(C)c3)[nH]c12,half-life,[1],103 min
same,Cmax,[2],733 ng/mL
COc1ccc(C2CCOCC2)c2ncc(NC(=O)N3CCC(C)(O)CC3)nc12,half-life,[1],55.2 min
COc1ccc(-c2cnn(C)c2)c2nc(NC(=O)N3CCC(C)(O)CC3)[nH]c12,half-life,[1],52 min
same,Cmax,[2],1320 ng/mL
COCc1cccc(Cn2cc(-c3cc(-c4ccco4)nc(N)n3)nn2)n1,Kb,Adenosine receptor A2a [3],< 100 nM
Cc1cccnc1CNC(=O)c1c(N)nc(-c2ccco2)nc1OCCF,Ki,Adenosine receptor A1,260 nM
same,Ki,Adenosine receptor A2a [4],1.3 nM
same,Ki,Adenosine receptor A3,62 nM
same,IC50,Adenosine receptor A2a [5],> 200 nM
COCCn1cc(C(=O)Nc2nc3c(OC)ncc(N4CCOCC4)c3s2)cn1,half-life,[1],49 min
same,IC50,Adenosine receptor A2a [6],< 10 nM
same,Cmax,[2],1390 ng/mL
COc1nc(-c2ncco2)nc(N)c1C(=O)NCc1c(Cl)cccc1Cl,Ratio Ki,Homo sapiens [7],2490
same,IC50,Adenosine receptor A2a [8],17 nM
same,Ki,Adenosine receptor A2a [4],0.078 nM
same,Ratio Ki,Homo sapiens [9],230
same,IC50,Adenosine receptor A2a [5],> 200 nM
same,Ki,Adenosine receptor A2b,5.4 nM
Nc1nc(-c2ccccc2)c(-c2ccc(O)c(Cl)c2)n2ccnc12,Kb,[10],< 10000 nM
COc1ncc(-c2ccccc2)c2ncc(NC(=O)N3CCC(C)(O)CC3)nc12,IC50,Adenosine receptor A2a [6],< 100 nM
NC(=O)Cc1cc(N2CCN(CCn3c(=O)sc4c3nc(N)n3nc(-c5ccco5)nc43)CC2)c(F)cc1F,IC50,Adenosine receptor A2a [11],0.5 nM
same,IC50,Adenosine receptor A2a [12],20 nM
same,IC50,Adenosine receptor A2a [13],49 nM
same,IC50,Adenosine receptor A2a [14],2 nM
COc1ccc(N2CCOCC2)c2sc(NC(=O)N3CCC(C)(O)CC3)nc12 [TOZADENANT],half-life,[1],11 min
same,Cmax,[2],337 ng/mL
Cc1c(C#N)cccc1-c1cc(-c2cn(Cc3cccc(C(C)(C)O)n3)nn2)nc(N)n1 [ETRUMADENANT],Tmax,[15],90 min
same,Cmax,[16],1170 ng/mL
same,Tmax,[17],120 min
same,half-life,[18],1200 min
COc1ncc(N2CCOCC2)c2sc(NC(=O)N3CCC(C)(O)CC3)nc12,half-life,[1],10.3 min
same,Cmax,[2],449 ng/mL
